{"source": "patent US20130303562A1", "about": "“CHEMICAL AND RNAI SUPPRESSORS OF NEUROTOXICITY IN HUNTINGTON'S DISEASE” (priority 2010, published 2013)", "key": {"[1]": {"test_system": "HD larvae (Elav^c155-GAL4; UAS-Htt-Q138/+)", "assay": "In vivo rescue: viability of HD larvae after 5-day drug dosing in liquid culture", "parameters": "species or system Drosophila", "settings": "larvae reared in liquid culture, 5-day dosing, compared to DMSO-treated controls", "protocol": "In vivo Rescue studies: For small molecule in vivo rescue studies, Elav^c155; UAS-Htt-Q138-mRFP^1, UAS-mCD8-GFP/+1st instar larvae were collected en-masse and dispensed into liquid yeast media (10 larvae/well) containing therapeutic agents at three different concentrations as described in the results (n=8 replicas/concentration). Cultures were reared at 21° C. and larval viability was assessed after 5 days and the mean number of living Htt138Q larvae (i.e. GFP^+, Htt138QmRFP^+, and mobile) was tabulated, and expressed as a percentage of total larvae/well. For genetic rescue studies with lkb1, two Htt138Q strains were utilized: a strong expressing line, UAS-Htt138QmRFP^1 which is pharate lethal when crossed to Elav^c155, and a weaker expressing line, UAS-Htt138QmRFP^2 which survives to adulthood and is viable for a number of weeks. Using the strong line, pharate lethality at 25° C. was calculated after lkb1 (lkb1^4B1-11 and lkb1^4A4-2 alleles) was introduced into an Elav^c155, UAS-Htt/+background. Lkb1^4B1-11 is a premature truncation allele (Q98>Stop), and lkb1^4A4-2 is an EMS null allele (589 b.p. deletion removing 150 b.p. of the 5′ UTR, the start codon and the beginning of the open reading frame). For Top1 in vivo analysis, Elav^c155, Top^112 recombinants were generated and crossed to UAS-Htt138QmRFP^1.\nTo further examine the RNAi/small molecule screen hits, we assayed in vivo efficacy by testing their ability to rescue lethality in our Drosophila HD model. […] Specific inhibitors of Lkb1 were not available for in vivo testing."}, "[2]": {"test_system": "subject having or suspected of having the polyQ tract expansion disease HD", "assay": "Oral carbenoxolone in subjects having or suspected of having HD", "format": "in vivo, human", "settings": "about 100-700 mg/day", "protocol": "The carbenoxolone is administered orally in tablet form, for example, as carbenoxolone disodium salt. The dosage is within the range of about 100-700 mg/day, for example at about 150 mg/day, about 300 mg/day, or about 600 mg/day. […] Such monitoring includes measuring cognitive and motor function in the subject, and/or determining whether a slowing or reversal of a personality change commonly associated with HD is observable. In some instances, the monitoring includes measuring the aggregation of Htt protein, the number or size of inclusion bodies, and/or brain tissue homeostasis (e.g. detection of improved survival of neuronal cells and/or reduction in astrocytes). […] After a period of time sufficient for a desired change, e.g. an amelioration in an HD symptom, to manifest, the subject is then monitored for such a change. For example, the subject, in some embodiments, is monitored for cognitive function, for example, within a time frame of about a week to about 6 months (e.g., about one month or about two months) after administration is commenced. […] For example, in some embodiments, the dose may be increased from about 150 mg/day to about 300 mg/day. In some embodiments, the subject is monitored again for symptoms after dose adjustment and, if the symptoms persist at the same severity level, the dose is increased further. […]"}}, "data": [{"smiles": "CC1(C)[C@@H](OC(=O)CCC(=O)O)CC[C@]2(C)[C@H]3C(=O)C=C4[C@@H]5C[C@@](C)(C(=O)O)CC[C@]5(C)CC[C@@]4(C)[C@]3(C)CC[C@@H]12", "note": "[Carbenoxolone]", "values": [{"measurement": "Viability of Htt-Q138 expressing larvae / rescue of Htt-Q138 lethality", "setting": "[1]", "value": "comparable activity"}, {"measurement": "Viability of Htt-Q138 expressing larvae / rescue of Htt-Q138 lethality", "setting": "[1]; listed as carbenoxolone", "value": "rescue HD toxicity in vivo"}, {"measurement": "HD symptoms (cognition, motor function, personality change)", "setting": "[2]", "value": "improvement of at least some HD symptoms"}]}]}
